{"source": "paper PMC3124771", "about": "(Journal of immunology (Baltimore, Md. : 1950), 2011)", "test_system": "DR0301-restricted E2_281-300-specific T-cell line", "assay": "Tetramer staining of sorted T-cell line with peptide-loaded DR0301 tetramers", "assay_type": "cell-based, human", "settings": "quadrant boundary set by unloaded tetramer (Figure 2B)", "data": [{"substance": "E2_285-300: truncated version of E2_281-300; minimal epitope", "values": [{"measurement": "Staining of T-cell line with tetramers loaded with peptide", "result": "could be stained"}]}]}
